Peptide text beside a SMILES is read from it. * marks the point of attachment. Cbz = O=C(OCc1ccccc1)*
How the values were obtained:
[1] = test system: corticospinal tract (CST) after midthoracic spinal cord transection with human Schwann cell grafts; experiment: Corticospinal Tract (CST) Regeneration Assay; format: in vivo, adult nude rat; parameters: key: dramatically reduce (+++ or ++++) axonal degeneration; dramatically reduce (+++ or ++++) axonal degeneration; conditions: inhibitor in fibrin glue; thirty-five days after grafting
Protocol: Corticospinal Tract (CST) Regeneration Assay. Proteasome inhibitors are assayed for their ability to improve corticospinal tract (CST) regeneration following thoracic spinal cord injury by promoting CST regeneration into human Schwann cell grafts in the methods of Guest et al. (1997, supra). […] Inhibitors are incorporated into a fibrin glue and placed in the same region. Anterograde tracing from the motor cortex using the dextran amine tracers, Fluororuby (FR) and biotinylated dextran amine (BDA), are performed. Thirty-five days after grafting, the CST response is evaluated qualitatively by looking for reduced degeneration of CST fibers in or beyond grafts and quantitatively by constructing camera lucida composites to determine the sprouting index (SI), the position of the maximum termination density (MTD) rostral to the GFAP-defined host/graft interface, and the longitudinal spread (LS) of bulbous end terminals. The latter two measures provide information about axonal die-back.

[2] = test system: NGF-deprived sympathetic neurons; experiment: Neurite degeneration in NGF-deprived sympathetic neurons; format: cell-based; conditions: 36 hr after NGF deprivation
Text: Proteasome inhibitors also delay neurite degeneration in NGF-deprived sympathetic neurons. In addition to transected axons, axons from neurons that have been deprived of their physiological trophic factors may also undergo a Wallerian-like degeneration process (reviewed by Raff et al., 2002). If the distal part of an axon of a cultured sympathetic neuron is locally deprived of NGF, that part of the axon degenerates while the rest of the cell and axon survives (Campenot, 1982). Moreover, it has been shown that such an NGF deprivation-triggered axon degeneration is delayed in the sympathetic neurons from Wld^s mice (Deckwerth and Johnson, 1994). We thus decided to investigate whether UPS is also involved in NGF deprivation-triggered axon degeneration. Consistent with previous studies (for example, Deckwerth and Johnson, 1994), 36 hr after NGF deprivation, all of the cultured sympathetic neurons underwent a typical apoptosis program with death of cell bodies as detected by nuclei staining with Hoechst 33258 (a few normally stained nuclei are glial cells) and degeneration of axons as indicated by both morphological criteria and immunostaining.

CC(C)C[C@@H](C=O)NC(=O)[C@H](CC(C)C)NC(=O)[C@H](CC(C)C)NC(=O)OCc1ccccc1 [MG-132, Carbobenzoxy-L-leucyl-L-leucyl-L-leucinal] (Cbz-Leu-Leu-Leu-aldehyde)
Reduce Degeneration [1]: +++
axon (neurite) degeneration after NGF deprivation [2]: the majority of the axons were still intact
death of cell bodies after NGF deprivation ([2]; Hoechst 33258 nuclei staining): still showed clear apoptotic staining

Source: patent US7238659B2, “Reducing axon degeneration with proteasome inhibitors” (Children's Medical Center Corporation, priority 2003, dated 2007)
